Measurements from patent publication US6613718B2, “Aryl ether derivatives and processes for their preparation and herbicidal and desiccant compositions containing them” (Ishihara Sangyo Kaisha, Ltd., priority 2001, dated 2003).

Assays:
Format in all cases: in vivo
[1] = tested on: upland rice (Oryza sp., var.Tebonnet, RICE); assay: Pre-emerge greenhouse screening, crop safety (phytotoxicity rating); conditions: 14 days after application
Summary of the method: (§1)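 Plants grown in sandy loam pots received acetone solutions of compound by moving-nozzle track sprayer, 15–1000 g ai/ha. In post-emergence runs the foliage was at the 2-3 leaf stage and spray contained 0.25% v/v non-ionic surfactant. Damage was assessed visually after 14 days (0-100).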

[2] = tested on: soybean (Glycine max L., var. Pella 86, SOY); assay: as above; conditions: 14 days after application
Summary of the method: as §1

[3] = tested on: field corn (Zea mays L., var. Dekalb 535, CORN); assay: as above; conditions: 14 days after application
Summary of the method: as §1

[4] = tested on: upland rice (Oryza sp., var.Tebonnet, RICE); assay: Post-emerge greenhouse screening, crop safety (phytotoxicity rating); conditions: 14 days after application
Summary of the method: as §1

[5] = tested on: soybean (Glycine max L., var. Pella 86, SOY); assay: as above; conditions: 14 days after application
Summary of the method: as §1

[6] = tested on: sicklepod (Cassia obtusifolia, CASOB); assay: Post-emerge greenhouse herbicide activity screening, phytotoxicity rating
Summary of the method: as §1

[7] = tested on: ivyleaf morningglory (Ipomoea hederacea, IPOHE); assay: as above; conditions: 14 days after application
Summary of the method: as §1

[8] = tested on: common ragweed (Ambrosia artemisiifolia L., AMBEL); assay: as above
Summary of the method: as §1

[9] = tested on: johnsongrass (Sorghum halepense, SORHA); assay: as above; conditions: 14 days after application
Summary of the method: as §1

[10] = tested on: green foxtail (Setaria viridis, SETVI); assay: as above
Summary of the method: as §1

[11] = tested on: large crabgrass (Digitaria sanguinalis, DIGSA); assay: as above; conditions: 14 days after application
Summary of the method: as §1

[12] = tested on: lambsquarters (Chenopodium album, CHEAL); assay: as above
Summary of the method: as §1

[13] = tested on: redroot pigweed (Amaranthus retroflexus, AMARE); assay: as above
Summary of the method: as §1

[14] = tested on: velvetleaf (Abutilon theophrasti, ABUTH); assay: as above; conditions: 14 days after application
Summary of the method: as §1

[15] = tested on: barnyardgrass (Echinochloa crus-galli, ECHCG); assay: as above; conditions: 14 days after application
Summary of the method: as §1

[16] = tested on: sicklepod (Cassia obtusifolia, CASOB); assay: Pre-emerge greenhouse herbicide activity screening, phytotoxicity rating; conditions: 14 days after application
Summary of the method: as §1

[17] = tested on: ivyleaf morningglory (Ipomoea hederacea, IPOHE); assay: as above; conditions: 14 days after application
Summary of the method: as §1

[18] = tested on: common ragweed (Ambrosia artemisiifolia L., AMBEL); assay: as above; conditions: 14 days after application
Summary of the method: as §1

[19] = tested on: johnsongrass (Sorghum halepense, SORHA); assay: as above; conditions: 14 days after application
Summary of the method: as §1

[20] = tested on: green foxtail (Setaria viridis, SETVI); assay: as above; conditions: 14 days after application
Summary of the method: as §1

[21] = tested on: large crabgrass (Digitaria sanguinalis, DIGSA); assay: as above; conditions: 14 days after application
Summary of the method: as §1

[22] = tested on: lambsquarters (Chenopodium album, CHEAL); assay: as above; conditions: 14 days after application
Summary of the method: as §1

[23] = tested on: redroot pigweed (Amaranthus retroflexus, AMARE); assay: as above; conditions: 14 days after application
Summary of the method: as §1

[24] = tested on: velvetleaf (Abutilon theophrasti, ABUTH); assay: as above; conditions: 14 days after application
Summary of the method: as §1

[25] = tested on: barnyardgrass (Echinochloa crus-galli, ECHCG); assay: as above; conditions: 14 days after application
Summary of the method: as §1

[26] = tested on: field corn (Zea mays L., var. Dekalb 535, CORN); assay: Post-emerge greenhouse screening, crop safety / corn selectivity (phytotoxicity rating); conditions: for CORN crop damage, phytotoxicity rating (0-100 scale): 14 days after application
Summary of the method: as §1

[27] = 125 g ai/ha, 14 days after application
[28] = 250 g ai/ha, 14 days after application

Fc1cc(Cl)c(Oc2ncccn2)cc1-c1nn2c(c1Br)CCCC2 [Compound 6-2]
99: SOY crop damage, phytotoxicity rating (0-100 scale) ([5]; 125 g ai/ha) | SOY crop damage, phytotoxicity rating (0-100 scale) ([5]; 250 g ai/ha) | AMBEL phytotoxicity rating (0-100 scale) ([18]; 125 g ai/ha) | ECHCG phytotoxicity rating (0-100 scale) ([25]; 125 g ai/ha)
3: CORN selectivity, phytotoxicity rating (0-100 scale) ([26]; 31.3 g ai/ha)
25: SOY crop damage, phytotoxicity rating (0-100 scale) ([2]; 125 g ai/ha)
98: RICE crop damage, phytotoxicity rating (0-100 scale) ([4]; 250 g ai/ha)
80: AMBEL phytotoxicity rating (0-100 scale) ([8]; 31.3 g ai/ha) | SORHA phytotoxicity rating (0-100 scale) ([9]; 125 g ai/ha) | DIGSA phytotoxicity rating (0-100 scale) ([11]; 250 g ai/ha)
15: CORN crop damage, phytotoxicity rating (0-100 scale) ([26]; 125 g ai/ha) | CORN crop damage, phytotoxicity rating (0-100 scale) ([26]; 250 g ai/ha)
75: RICE crop damage, phytotoxicity rating (0-100 scale) ([1]; 250 g ai/ha) | DIGSA phytotoxicity rating (0-100 scale) ([11]; 125 g ai/ha)
10: CORN selectivity, phytotoxicity rating (0-100 scale) ([26]; 62.5 g ai/ha)
20: CORN crop damage, phytotoxicity rating (0-100 scale) ([3]; 125 g ai/ha)
90: AMBEL phytotoxicity rating (0-100 scale) [8, 28] | ECHCG phytotoxicity rating (0-100 scale) ([15]; 125 g ai/ha)
95: RICE crop damage, phytotoxicity rating (0-100 scale) ([4]; 125 g ai/ha) | SORHA phytotoxicity rating (0-100 scale) ([9]; 250 g ai/ha) | ECHCG phytotoxicity rating (0-100 scale) ([15]; 250 g ai/ha)
100: CASOB phytotoxicity rating (0-100 scale) ([6]; 31.3 g ai/ha) | CASOB phytotoxicity rating (0-100 scale) ([6]; 62.5 g ai/ha) | CASOB phytotoxicity rating (0-100 scale) [6, 27] | CASOB phytotoxicity rating (0-100 scale) [6, 28] | IPOHE phytotoxicity rating (0-100 scale) ([7]; 125 g ai/ha) | IPOHE phytotoxicity rating (0-100 scale) ([7]; 250 g ai/ha) | SETVI phytotoxicity rating (0-100 scale) ([10]; 31.3 g ai/ha) | SETVI phytotoxicity rating (0-100 scale) ([10]; 62.5 g ai/ha) | SETVI phytotoxicity rating (0-100 scale) [10, 27] | SETVI phytotoxicity rating (0-100 scale) [10, 28] | CHEAL phytotoxicity rating (0-100 scale) ([12]; 31.3 g ai/ha) | CHEAL phytotoxicity rating (0-100 scale) ([12]; 62.5 g ai/ha) | CHEAL phytotoxicity rating (0-100 scale) [12, 27] | CHEAL phytotoxicity rating (0-100 scale) [12, 28] | AMARE phytotoxicity rating (0-100 scale) ([13]; 31.3 g ai/ha) | AMARE phytotoxicity rating (0-100 scale) ([13]; 62.5 g ai/ha) | AMARE phytotoxicity rating (0-100 scale) [13, 27] | AMARE phytotoxicity rating (0-100 scale) [13, 28] | ABUTH phytotoxicity rating (0-100 scale) ([14]; 125 g ai/ha) | ABUTH phytotoxicity rating (0-100 scale) ([14]; 250 g ai/ha) | CASOB phytotoxicity rating (0-100 scale) ([16]; 125 g ai/ha) | CASOB phytotoxicity rating (0-100 scale) ([16]; 250 g ai/ha) | IPOHE phytotoxicity rating (0-100 scale) ([17]; 250 g ai/ha) | AMBEL phytotoxicity rating (0-100 scale) ([18]; 250 g ai/ha) | SORHA phytotoxicity rating (0-100 scale) ([19]; 125 g ai/ha) | SORHA phytotoxicity rating (0-100 scale) ([19]; 250 g ai/ha) | SETVI phytotoxicity rating (0-100 scale) ([20]; 125 g ai/ha) | SETVI phytotoxicity rating (0-100 scale) ([20]; 250 g ai/ha) | DIGSA phytotoxicity rating (0-100 scale) ([21]; 125 g ai/ha) | DIGSA phytotoxicity rating (0-100 scale) ([21]; 250 g ai/ha) | CHEAL phytotoxicity rating (0-100 scale) ([22]; 125 g ai/ha) | CHEAL phytotoxicity rating (0-100 scale) ([22]; 250 g ai/ha) | AMARE phytotoxicity rating (0-100 scale) ([23]; 125 g ai/ha) | AMARE phytotoxicity rating (0-100 scale) ([23]; 250 g ai/ha) | ABUTH phytotoxicity rating (0-100 scale) ([24]; 125 g ai/ha) | ABUTH phytotoxicity rating (0-100 scale) ([24]; 250 g ai/ha) | ECHCG phytotoxicity rating (0-100 scale) ([25]; 250 g ai/ha)
85: AMBEL phytotoxicity rating (0-100 scale) ([8]; 62.5 g ai/ha) | AMBEL phytotoxicity rating (0-100 scale) [8, 27] | IPOHE phytotoxicity rating (0-100 scale) ([17]; 125 g ai/ha)
60: RICE crop damage, phytotoxicity rating (0-100 scale) ([1]; 125 g ai/ha)
40: SOY crop damage, phytotoxicity rating (0-100 scale) ([2]; 250 g ai/ha) | CORN crop damage, phytotoxicity rating (0-100 scale) ([3]; 250 g ai/ha)

N#Cc1c(-c2cc(Oc3ncccn3)c(Cl)cc2F)nn2c1CCCC2 [Compound 6-17]
60: AMBEL phytotoxicity rating (0-100 scale) [8, 27] | ECHCG phytotoxicity rating (0-100 scale) ([15]; 125 g ai/ha) | ECHCG phytotoxicity rating (0-100 scale) ([25]; 125 g ai/ha)
90: SETVI phytotoxicity rating (0-100 scale) [10, 27] | SETVI phytotoxicity rating (0-100 scale) [10, 28]
98: SORHA phytotoxicity rating (0-100 scale) ([19]; 250 g ai/ha) | ECHCG phytotoxicity rating (0-100 scale) ([25]; 250 g ai/ha)
25: RICE crop damage, phytotoxicity rating (0-100 scale) ([1]; 125 g ai/ha) | DIGSA phytotoxicity rating (0-100 scale) ([11]; 250 g ai/ha) | CASOB phytotoxicity rating (0-100 scale) ([16]; 250 g ai/ha) | AMBEL phytotoxicity rating (0-100 scale) ([18]; 250 g ai/ha)
35: RICE crop damage, phytotoxicity rating (0-100 scale) ([1]; 250 g ai/ha) | AMBEL phytotoxicity rating (0-100 scale) ([18]; 125 g ai/ha)
65: ECHCG phytotoxicity rating (0-100 scale) ([15]; 250 g ai/ha)
5: CORN crop damage, phytotoxicity rating (0-100 scale) ([26]; 250 g ai/ha)
0: SOY crop damage, phytotoxicity rating (0-100 scale) ([2]; 125 g ai/ha) | SOY crop damage, phytotoxicity rating (0-100 scale) ([2]; 250 g ai/ha) | CORN crop damage, phytotoxicity rating (0-100 scale) ([3]; 125 g ai/ha) | CORN crop damage, phytotoxicity rating (0-100 scale) ([3]; 250 g ai/ha) | SORHA phytotoxicity rating (0-100 scale) ([9]; 125 g ai/ha) | DIGSA phytotoxicity rating (0-100 scale) ([11]; 125 g ai/ha) | CASOB phytotoxicity rating (0-100 scale) ([16]; 125 g ai/ha) | IPOHE phytotoxicity rating (0-100 scale) ([17]; 125 g ai/ha) | IPOHE phytotoxicity rating (0-100 scale) ([17]; 250 g ai/ha) | CORN crop damage, phytotoxicity rating (0-100 scale) ([26]; 125 g ai/ha)
100: IPOHE phytotoxicity rating (0-100 scale) ([7]; 125 g ai/ha) | IPOHE phytotoxicity rating (0-100 scale) ([7]; 250 g ai/ha) | CHEAL phytotoxicity rating (0-100 scale) [12, 27] | CHEAL phytotoxicity rating (0-100 scale) [12, 28] | AMARE phytotoxicity rating (0-100 scale) [13, 27] | AMARE phytotoxicity rating (0-100 scale) [13, 28] | ABUTH phytotoxicity rating (0-100 scale) ([14]; 125 g ai/ha) | ABUTH phytotoxicity rating (0-100 scale) ([14]; 250 g ai/ha) | SETVI phytotoxicity rating (0-100 scale) ([20]; 125 g ai/ha) | SETVI phytotoxicity rating (0-100 scale) ([20]; 250 g ai/ha) | DIGSA phytotoxicity rating (0-100 scale) ([21]; 250 g ai/ha) | CHEAL phytotoxicity rating (0-100 scale) ([22]; 125 g ai/ha) | CHEAL phytotoxicity rating (0-100 scale) ([22]; 250 g ai/ha) | AMARE phytotoxicity rating (0-100 scale) ([23]; 125 g ai/ha) | AMARE phytotoxicity rating (0-100 scale) ([23]; 250 g ai/ha) | ABUTH phytotoxicity rating (0-100 scale) ([24]; 250 g ai/ha)
95: CASOB phytotoxicity rating (0-100 scale) [6, 28] | SORHA phytotoxicity rating (0-100 scale) ([19]; 125 g ai/ha)
99: DIGSA phytotoxicity rating (0-100 scale) ([21]; 125 g ai/ha)
85: ABUTH phytotoxicity rating (0-100 scale) ([24]; 125 g ai/ha)
30: SORHA phytotoxicity rating (0-100 scale) ([9]; 250 g ai/ha)
75: AMBEL phytotoxicity rating (0-100 scale) [8, 28]
80: RICE crop damage, phytotoxicity rating (0-100 scale) ([4]; 125 g ai/ha) | RICE crop damage, phytotoxicity rating (0-100 scale) ([4]; 250 g ai/ha)
70: SOY crop damage, phytotoxicity rating (0-100 scale) ([5]; 125 g ai/ha) | SOY crop damage, phytotoxicity rating (0-100 scale) ([5]; 250 g ai/ha) | CASOB phytotoxicity rating (0-100 scale) [6, 27]
